{"source": "patent US20250049836A1", "about": "“PRODRUGS OF DEOXYNUCLEOSIDES FOR TREATMENT OF MITOCHONDRIAL DISEASES CAUSED BY UNBALANCED NUCLEOTIDE POOLS” (UCB Biosciences, Inc., priority 2021, published 2025)", "key": {"MPV17^−/− mice": {"system": "MPV17^−/− mice", "assay": "qPCR measurements of mtDNA copy number in the liver of MPV17−/− mice", "type": "in vivo, mouse", "details": "treatment alone; summary statement", "description": "• 2A. 2 litters from MPV17^−/− mouse (KO×KO) breeding pairs were used in the study. The experimental groups were set up as follows: • 1. - - - KO untreated (n=1) • 2. - - - KO treated with 109.35 mg/kg MT102C+104.2 mg/kg MT102G (n=3) • 3. - - - KO treated with 163.87 mg/kg MT103C+150.56 mg/kg MT103G (n=3) • 4. - - - KO treated with 75 mg/kg dC and 75 mg/kg dG (purchased from Sigma) (n=3) • 5. - - - KO treated with 144.9 mg/kg MT101G (n=2)\nTreatment was started at day 7 and terminated at day 30. The treatment was performed by delivery into the oral cavity throughout the study. […] At day 30, animals were sacrificed and tissues collected. Liver, muscle, kidney, gut, heart and brain were flash frozen in liquid nitrogen. Blood was collected by heart puncture and plasma fractions stored at −80° C.\nResults of qPCR measurements of mtDNA copy number in the liver tissue of treated and untreated mice are shown FIG. 7. • 2B. In order to compare results, WT (n=5), KO untreated (n=4) and KO treated with 20% MT101 (n=4) and 20% MT104 (n=4) from previous experiments were also included in the analysis. • 2C. Three other litters from KO x KO breeding pairs were used in a further study of nucleoside prodrug supplementation: • 1.—Litter 2 (L2): Born on Feb. 9, 2020 • 2.—Litter 3 (L3): Born on May 9, 2020 • 3.—Litter 4 (L4): Born on Aug. 9, 2020 […]\nmtDNA copy number in liver was analyzed by RT-qPCR. […]"}, "[1]": {"system": "fibroblasts from patients with DGUOK mutations", "details": "cited from earlier work"}, "dGK mutant fish": {"system": "dGK mutant fish", "details": "nucleoside supplementation (Munro, et al. 2019); cited from earlier work"}}, "data": [{"smiles": "Nc1nc2c(ncn2[C@H]2C[C@H](O)[C@@H](CO)O2)c(=O)[nH]1", "note": "[dG, 2′-deoxyguanosine]", "values": [{"measurement": "mtDNA copy numbers in dGK or MPV17 deficiency disorders", "setting": "MPV17^−/− mice", "value": "sufficient to increase mtDNA copy numbers"}, {"measurement": "mtDNA depletion after quiescence, previously demonstrated", "setting": "[1]; 50 μM in cell culture medium", "value": "sufficient to prevent this depletion"}, {"measurement": "mtDNA copy number", "setting": "[1]; 50 μm added into culture broth (Camara, et al. 2014)", "value": "sufficient to increase the mtDNA copy number"}, {"measurement": "mtDNA levels in dGK mutant fish", "setting": "dGK mutant fish", "value": "decreased mtDNA levels"}]}]}
